Key:
[1] = Lipid nanoparticle size and polydispersity by dynamic light scattering; type: physicochemical; settings: LNP comprising the compound, hEPO mRNA; for Size (nm): cationic lipid/DSPC/cholesterol/PEG-lipid 50:10:38.5:1.5
Method: (§1) Briefly, a cationic lipid provided herein, DSPC, cholesterol, and PEG-lipid were solubilized in ethanol at a molar ratio of 50:10:38.5:1.5, and mRNA were diluted in 10 to 50 mM citrate buffer, pH=4. The LNPs were prepared at a total lipid to mRNA weight ratio of approximately 10:1 to 30:1 by mixing the ethanolic lipid solution with the aqueous mRNA solution at a volume ratio of 1:3 using a microfluidic apparatus, total flow rate ranging from 9-30 mL/min. Ethanol were thereby removed and replaced by DPBS using dialysis. Finally, the lipid nanoparticles were filtered through a 0.2 μm sterile filter.
(§2) Lipid nanoparticle size were determined by dynamic light scattering using a Malvern Zetasizer Nano ZS (Malvern UK) using a 173° backscatter detection mode. The encapsulation efficiency of lipid nanoparticles were determined using a Quant-it Ribogreen RNA quantification assay kit (Thermo Fisher Scientific, UK) according to the manufacturer's instructions.

[2] = Encapsulation efficiency of lipid nanoparticles (Quant-it Ribogreen RNA assay); type: physicochemical; settings: LNP comprising the compound, hEPO mRNA
Method: as §1, §2

[3] = test system: human erythropoietin (hEPO) mRNA expression; experiment: Animal Study 1: hEPO mRNA LNPs i.v. in mice, serum EPO by ELISA; type: in vivo; settings: female ICR mice, 0.5 mg/kg tail vein injection, blood e.g. 6 hours post administration; relative to MC3 LNP
Method: Lipid nanoparticles comprising compounds in the following table encapsulating human erythropoietin (hEPO) mRNA were systemically administered to 6-8 week old female ICR mice (Xipuer-Bikai, Shanghai) at 0.5 mg/kg dose by tail vein injection and mice blood were sampled at specific time points (e.g., 6 hours) post administration. In addition to the aforementioned tested groups, lipid nanoparticles comprising dilinoleylmethyl-4-dimethylaminobutyrate (DLin-MC3-DMA, usually abbreviated to MC3) encapsulating hEPO mRNA were similarly administered at the same dose to age and gender comparative groups of mice as a positive control.
Mice were euthanized by CO2 overdoses after the last sampling time point. Serum were separated from total blood by centrifugation at 5000 g for 10 minutes at 4 T, snap-frozen and stored at −80 T for analysis. ELISA assay were carried out using a commercial kit (DEP00, R&D systems) according to manufacturer's instructions.
Characteristics of tested lipid nanoparticles, including EPO expression levels over MC3 measured from the tested group are listed in the table below.

[4] = Lipid clearance study: lipid remaining in liver tissue by LC-MS/MS; settings: mouse liver; for % Dose Remaining in Liver Tissue, 6 h: 6 h after 0.5 mg/kg i.v. bolus dose mRNA; for % Dose Remaining in Liver Tissue, 24 h: 24 h after 0.5 mg/kg i.v. bolus dose mRNA; for % Dose Remaining in Liver Tissue, 48 h: 48 h after 0.5 mg/kg i.v. bolus dose mRNA
Method: LNPs were injected into mice via the tail vein (ICR female, IV, 0.5 mg mRNA/kg), then mice were anesthetized under carbon dioxide at different time (e.g., 6 h, 24 h, and 48 h) after administration and sacrificed via cardiac puncture. Liver tissue were collected immediately, and then washed by ice-cold saline. Liver samples were weighed and homogenized in ice water bath by adding pre-chilled 20% methanol-water (v/v) at 2˜8° C. with the ratio of 1:5 (w/v). The homogenized tissue samples were stored in −90˜−60° C. freezer prior to analysis.
All liver tissue homogenate samples were allowed to thaw at room temperature. An aliquot of 50 μL of sample was added with 50 μL MgCl2 (2M), then added with ACN which contains of Verapamil, 5 ng mL-1 and Glibenclamide, 50 ng mL-1 and Diclofenac, 200 ng mL^−1 and Tolbutamide, 200 ng mL^−1 for protein precipitation, then centrifuged at 13000 rpm for 8 min. Then 100 μL of supernatant was added with 100 μL water, then vortexed well. An aliquot of 5 μL of the mixture was injected into the LC-MS/MS system.

[5] = Apparent pKa of LNP formulations (TNS fluorescence assay); type: physicochemical; settings: LNP formulation, TNS assay (Table 2)
Method: As reported in literature, the apparent pKa of LNP formulations correlates with the delivery efficiency of LNPs for nucleic acids in vivo. The apparent pKa of each formulation was determined using an assay based on fluorescence of 2-(p-toluidino)-6-napthalene sulfonic acid (TNS). LNP formulations comprising of cationic lipid/DSPC/cholesterol/DMG-PEG (50/10/38.5/1.5 mol %) in PBS were prepared as described above. TNS was prepared as a 300 μM stock solution in distilled water. LNP formulations were diluted to 0.1 mg/mL total lipid in 3 mL of buffered solutions containing 50 mM sodium citrate, 50 mM sodium phosphate, 50 mM sodium borate, and 30 mM sodium chloride where the pH ranged from 3 to 9. An aliquot of the TNS solution was added to give a final concentration of […] and following vortex mixing fluorescence intensity was measured at room temperature in a Molecular Devices Spectramax iD3 spectrometer using excitation and mission wavelengths of 325 nm and 435 nm. A sigmoidal best fit analysis was applied to the fluorescence data and the pKa value was measured as the pH giving rise to half-maximal fluorescent intensity.

SMILES | Polydispersity [1] | Size (nm) [1] [nm] | Encapsulation efficiency [2] [%] | EPO expression over MC3 [3] | % Dose Remaining in Liver Tissue, 6 h [4] [%] | % Dose Remaining in Liver Tissue, 24 h [4] [%] | % Dose Remaining in Liver Tissue, 48 h [4] [%] | Apparent pKa [5]
CCCCCCCCC(CCCCCC)CNC(=O)CCCCCN(CCO)CCCCC(COC(=O)CCCCCCC)COC(=O)CCCCCCC (centres unmarked) [Compound 11] | 0.082 | 59.17 | 85.63 | D (<0.1) | 3.1 | 0.537 | 0.139 | 
CCCCCCCC(=O)OCC(CCCCN(CCCCC(COC(=O)CCCCCCC)COC(=O)CCCCCCC)CCOCCO)COC(=O)CCCCCCC [Compound 5] | 0.073 | 82.87 | 89.49 | A (≥2) | 2.646 | 0.098 | 0 | 
CCCCCCCC(=O)OCC(CCCCN(CCCCC(COC(=O)CCCCCCC)COC(=O)CCCCCCC)[C@H]1C=C[C@@H](CO)C1)COC(=O)CCCCCCC [Compound 48] | 0.027 | 92.53 | 84.12 | A (≥2) |  |  |  | 6.143
CCCCCCCC(=O)OCC(COC(=O)CCCCCCC)OCCCN(CCCCCO)CCCOC(COC(=O)CCCCCCC)COC(=O)CCCCCCC [Compound 25] | 0.085 | 98.05 | 82.87 | B (≥1 and <2) |  |  |  | 6.418
CCCCCCCCCCCCCCCC(=O)OCCCCCCN(CCO)CCCCC(COC(=O)CCCCCCC)COC(=O)CCCCCCC [Compound 20] | 0.078 | 72.72 | 91.22 | A (≥2) |  |  |  | 6.889
CCCCCCCC(=O)OCC(CCCCN(CCCCC(COC(=O)CCCCCCC)COC(=O)CCCCCCC)C1CC(CO)(CO)C1)COC(=O)CCCCCCC [Compound 61] | 0.066 | 72.95 | 91.26 | C (≥0.1 and <1) |  |  |  | 7.32
CCCCCCCC(=O)OCC(CCCCN(CCCCC(COC(=O)CCCCCCC)COC(=O)CCCCCCC)CCCNc1c(N(C)C)c(=O)c1=O)COC(=O)CCCCCCC [Compound 27] | 0.073 | 64.02 | 91.59 | A (≥2) |  |  |  | 6.404
CCCCCCCC(=O)OCC(CC)(COC(=O)CCCCCCC)COC(=O)CCCCCN(CCO)CCCCCC(=O)OCC(CC)(COC(=O)CCCCCCC)COC(=O)CCCCCCC [Compound 82] | 0.010 | 69.37 | 95.75 | A (≥2) |  |  |  | 6.342
CCCCCCCCOC(CCCCCN(CCCCCC(OCCCCCCCC)OCCCCCCCC)CCOCCO)OCCCCCCCC [Compound 17] | 0.056 | 79.67 | 96.64 | C (≥0.1 and <1) |  |  |  | 6.189
CCCCCCCC(=O)OCC(CCCCN(CCCCC(COC(=O)CCCCCCC)COC(=O)CCCCCCC)[C@H]1CC[C@H](CO)CC1)COC(=O)CCCCCCC [Compound 59] | 0.066 | 168.4 | 72.86 | A (≥2) |  |  |  | 6.633
CCCCCCCCOC(CCCCCN(CCCCO)CCCCCC(OCCCCCCCC)OCCCCCCCC)OCCCCCCCC [Compound 18] | 0.057 | 62.64 | 93.58 | B (≥1 and <2) |  |  |  | 6.251
CCCCCCCC/C=C\CCCCCCCC(=O)OCCCCCCN(CCO)CCCCC(COC(=O)CCCCCCC)COC(=O)CCCCCCC [Compound 24] | 0.07 | 70.66 | 90.29 | C (≥0.1 and <1) |  |  |  | 6.745
CCCCCCCCC(CCCCCC)COC(=O)CCCCCN(CCO)CCCCCC(=O)OCC(C)(COC(=O)CCCCCCC)COC(=O)CCCCCCC (centres unmarked) [Compound 83] | 0.051 | 67.54 | 94.79 | A (≥2) |  |  |  | 6.547
CCCCCCCC(=O)OCC(COC(=O)CCCCCCC)COC(=O)CCCCCN(CCCO)CCCCCC(=O)OCC(COC(=O)CCCCCCC)COC(=O)CCCCCCC [Compound 66] | 0.010 | 113.3 | 95.46 | A (≥2) |  |  |  | 6.379
CCCCCCCC(=O)OCC(CCCCN(CCCCC(COC(=O)CCCCCCC)COC(=O)CCCCCCC)C1CC(O)C1)COC(=O)CCCCCCC (centres unmarked) [Compound 23] | 0.084 | 69.97 | 89.04 | A (≥2) |  |  |  | 6.601
CCCCCCCC(=O)OCC(CCCCN(CCCCC(COC(=O)CCCCCCC)COC(=O)CCCCCCC)CCCNc1c(N(C)CCC)c(=O)c1=O)COC(=O)CCCCCCC [Compound 35] | 0.05652 | 71.02 | 89.19 | A (≥2) |  |  |  | 6.138
CCCCCCCC(=O)OCC(CCCCN(CCCCCO)CCCCC(COC(=O)CCCCCCC)COC(=O)CCCCCCC)COC(=O)CCCCCCC [Compound 3] | 0.101 | 72.97 | 88.90 | A (≥2) |  |  |  | 6.726
CCCCCCCCCCCC(=O)OCC(COC(=O)CCCCCCCCCCC)COC(=O)CCCCCN(CCO)CCCCCC(=O)OCC(COC(=O)CCCCCCCCCCC)COC(=O)CCCCCCCCCCC [Compound 73] | 0.010 | 71.34 | 96.37 | C (≥0.1 and <1) |  |  |  | 6.536
CCCCCCCC/C=C\CCCCCCCC(=O)OCCCCCCN(CCCCC(COC(=O)CCCCCCC)COC(=O)CCCCCCC)C1CC(O)C1 (centres unmarked) [Compound 39] | 0.002 | 84.01 | 89.27 | C (≥0.1 and <1) |  |  |  | 6.801
CCCCC/C=C\C/C=C\CCCCCCCC(=O)OCCCCCCN(CCCCC(COC(=O)CCCCCCC)COC(=O)CCCCCCC)CCCNc1c(N(C)C)c(=O)c1=O [Compound 42] | 0.0478 | 77.38 | 95.23 | C (≥0.1 and <1) |  |  |  | 6.657
CCCCCCCC(=O)OCC(CCCCCCN(CCCCCO)CCCCCCC(COC(=O)CCCCCCC)COC(=O)CCCCCCC)COC(=O)CCCCCCC [Compound 29] | 0.031 | 80.75 | 86.98 | A (≥2) |  |  |  | 6.513
CCCCC/C=C\C/C=C\CCCCCCCC(=O)OCCCCCCN(CCCCC(COC(=O)CCCCCCC)COC(=O)CCCCCCC)C1CCC(O)CC1 (centres unmarked) [Compound 37] | 0.005279 | 93.13 | 88.34 | A (≥2) |  |  |  | 6.69
CCCCC/C=C\C/C=C\CCCCCCCC(=O)OCCCCCCN(CCO)CCCCC(COC(=O)CCCCCCC)COC(=O)CCCCCCC [Compound 22] | 0.051 | 79.16 | 89.98 | A (≥2) |  |  |  | 6.748

Reference: US20240238212A1, “LIPID COMPOUNDS AND LIPID NANOPARTICLE COMPOSITIONS” (SUZHOU ABOGEN BIOSCIENCES CO., LTD., priority 2022, published 2024)
